What was measured:
[1] = system: GβL binding with mTORC2 components (Sin1, Rictor, mTOR); test: GβL binding with mTORC2 components (HA-IP, HEK293 cells); assay type: cell-based; conditions: indicated doses of 7Bi, 16 hrs
Experimental: (§1) Cells were harvested and lysed in EBC buffer (50 mM Tris pH 7.5, 120 mM NaCl, 0.5% NP-40) supplemented with protease inhibitor cocktail (EDTA-free, mini-tablet) (Bimake) and phosphatase inhibitor cocktail (Bimake) by rotating in the cold room for 10 min followed by high-speed centrifugation at 4° C. The protein concentrations in supernatants of whole cell lysates were measured by NanoDrop OneC using the Bio-Rad Bradford protein assay reagent. Equal amounts of whole cell lysates were resolved on SDS-PAGE and immunoblotted with indicated antibodies. For immunoprecipitation analysis, 1 mg of total cell lysate was incubated with the indicated beads for 3-4 hr at 4° C. The recovered immuno-complexes were washed thoroughly three times with NETN buffer (20 mM Tris, pH 8.0, 100 mM NaCl, 1 mM EDTA and 0.5% NP-40) before being resuspended in SDS sample buffer and resolved on SDS-PAGE and immunoblotted with indicated antibodies.

A549 cells = test: Colony formation / growth of A549 cells; assay type: cell-based; conditions: treated once for 10 days
Experimental: 500 cells from OTUD7B depleted A549 cells were seeded into each well of 6-well plates and cultured in the 37° C. incubator with 5% CO2 for 10-15 days until formation of visible colonies. Triplicates were performed. To test the effect of a given inhibitor on colony formation ability, 800 cells from A549, H520 and H1299 cell lines were seeded into each well of 6-well plates, respectively. Each inhibitor was added at indicated concentration the next day. Colonies were counted after 10 days of treatment. The colony staining method was as described. […] Colony numbers were counted manually. […]
2,000 cells from indicated NSLC cell lines were seeded into each well of 96-well plates. Cell viability was measured 3 days post-treatment using MTT assays following manufacturer's instruction. […] Inhibitor was added the next day at indicated concentration and cell viability was measured after 3-day treatment. For cell proliferation assays in THP1, K562 and HL60 cell lines, 1×10^6 cells from each indicated cell line were seeded in 12.5 cm2 cell culture flask and cells were counted by hemocytometer under microscope at indicated time to monitor cell proliferation. […] Inhibitor was added the next day at indicated concentrations and cell number was counted after 3 days treatment. […]

THP1 cells = test: Leukemia cell proliferation, THP1; assay type: cell-based; conditions: 72 hrs
Experimental: 2,000 cells from indicated NSLC cell lines were seeded into each well of 96-well plates. Cell viability was measured 3 days post-treatment using MTT assays following manufacturer's instruction. For cell viability assays with inhibitor treatment, 2,000 cells from indicated NSLC and HEK293 cell lines were seeded in 96-well plate. Inhibitor was added the next day at indicated concentration and cell viability was measured after 3-day treatment. For cell proliferation assays in THP1, K562 and HL60 cell lines, 1×10^6 cells from each indicated cell line were seeded in 12.5 cm2 cell culture flask and cells were counted by hemocytometer under microscope at indicated time to monitor cell proliferation. To test inhibitor effects on THP1, K562 and HL60 cell growth, 2×10^5 cells were seeded in 12.5 cm2 cell culture flask. Inhibitor was added the next day at indicated concentrations and cell number was counted after 3 days treatment. Three independent experiments were performed to generate error bars.

OTUD7B [2] = test: OTUD7B protein levels by immunoblot; assay type: cell-based; conditions: 16 hrs
Experimental: as §1

OTUD7B [3] = biological target: T1, OTUD7B (Homo sapiens, UniProt Q6GQQ9); test: In vitro OTUD7B deubiquitination assay, K11-linked di-ub cleavage; assay type: biochemical
T1 construct: OTUD7B (residues 56-446); GST (N, cleaved yes); made in house; host or cells: E. coli BL21-Codon Plus (DE3)-RIL
T1 sequence (Q6GQQ9 56-446): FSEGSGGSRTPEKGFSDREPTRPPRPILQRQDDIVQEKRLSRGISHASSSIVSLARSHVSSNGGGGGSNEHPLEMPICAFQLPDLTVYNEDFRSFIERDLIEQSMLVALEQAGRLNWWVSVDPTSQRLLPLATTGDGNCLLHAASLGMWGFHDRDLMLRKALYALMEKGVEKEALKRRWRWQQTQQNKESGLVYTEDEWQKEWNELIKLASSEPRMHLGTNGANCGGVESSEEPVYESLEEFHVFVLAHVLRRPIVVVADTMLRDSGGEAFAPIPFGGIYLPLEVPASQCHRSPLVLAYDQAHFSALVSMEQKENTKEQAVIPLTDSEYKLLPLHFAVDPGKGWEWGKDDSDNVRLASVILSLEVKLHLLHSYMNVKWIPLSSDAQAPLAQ
From the text: OTUD7B (residues 56-446), OTUD7A (residues 1-462), USP21 (residues 196-565), and USP9X (residues 1551-1970) proteins were expressed in E. Coli BL21-Codon Plus (DE3)-RIL cells. Through an N-terminal GST tag, the DUBs were purified by affinity chromatography using glutathione sepharose 4B (GS4B) resin. Following the liberation of the DUB from the GST tag. the DUBs were subjected to size exclusion chromatography (SEC). To form the K11-linked di-ub, individual ubiquitins (K11R-substituted donor Ub and ΔGG acceptor ubiquitin) were purified and fluorescently-labeled on an N-terminal cysteine using either Cy3- (donor) or Cy5-maleimide (acceptor). The different ubiquitins were then added to a mixture containing UBA1, UBE2S, and MgATP to form di-ub. After an overnight incubation at room temperature, UBE2S was removed by cation-exchange chromatography and the di-ub was purified by SEC. These proteins were used to monitor DUB activity in the presence or absence of the various inhibitors. The inhibitors were incubated with DUBs in a reaction buffer (20 mM Hepes pH=8.0, 200 mM NaCl, 0.25 mg/mL BSA and 0.005% Tween-20) for 5 min at room temperature and then 0.5 uM fluorescently-labeled di-ub (K11-linked) was added to start the reaction. 5×SDS-PAGE loading buffer was used to quench the reaction at the indicated time point. […] Mono-ubiquitin was quantified to generate an IC50 value. […]

In the case of `Cc1cc(NC(=O)c2cnn(C)c2C(=O)Nc2cc(C)nn2C2CCCC2)n(C2CCCC2)n1` [7Bi], the “GβL binding with mTORC2 components (Sin1, Rictor, mTOR)” value [1] is reported as “attenuated GβL binding with mTORC2 components”, the cell growth (A549 cells) is reported as “reduced growth” and the cell proliferation (THP1 cells) is reported as “reduced proliferation”. For the same compound, the OTUD7B protein levels (OTUD7B [2]; A549 cells) was “did not significantly affect OTUD7B protein levels”, the OTUD7B protein levels (OTUD7B [2]; HEK293 cells) was “did not significantly affect OTUD7B protein levels” and the IC50 (OTUD7B [3]; 0.5 uM K11-diub and 5 nM active OTUD7B, 10 min, read-out: IC50, OTUD7B catalytic activity) was roughly 40 µM. For the same compound, the “suppression of OTUD7B-mediated K11-diub cleavage by purified 7Bi” value (OTUD7B [3]; HPLC purified 7Bi (~99% purity) compared with 90% purity) was “retained its ability to suppress OTUD7B-mediated K11-diub cleavage in vitro”.

Reference: patent publication US20260216138A1, “IDENTIFICATION OF OTUD7B INHIBITOR 7BI AND ITS APPLICATION IN REDUCING GROWTH OF NSCLC AND LEUKEMIA CELLS” (The University of North Carolina at Chapel Hill, priority 2023, published 2026)
